# Assay results as given in US7259159B2, “Guanidino derivatives as inhibitors of cell adhesion” (Sanofi-Aventis Deutschland GmbH, priority 2000, dated 2007).
# Biological target: T1, human vitronectin receptor αvβ3 (Homo sapiens, UniProt P05106+P06756)
# T1 construct: Human vitronectin receptor was obtained from the human placenta according to the method of Pytela et al; from tissue; host or cells: human placenta
# Test: Kistrin binding assay (αvβ3 ELISA test, K/VnR)
# Details: not given
# Description: The inhibition of the binding of kistrin to human vitronectin receptor (VnR) described below is a test method by which the antagonistic action of the compounds of the invention on the vitronectin receptor αvβ3 can be determined (αvβ3 ELISA Test; the test method is abbreviated as “K/VnR” in the listing of the test results).
# Kistrin was purified according to the methods of Dennis et al., as described in Proc. Natl. Acad. Sci. USA 87 (1989) 2471 and Proteins: Structure, Function and Genetics 15 (1993)312.
# Purification of Human vitronectin Receptor (αvβ3)
# Human vitronectin receptor was obtained from the human placenta according to the method of Pytela et al., Methods Enzymol. 144 (1987) 475. Human vitronectin receptor αvβ3 can also be obtained from some cell lines (for example from 293 cells, a human embryonic kidney cell line) which are co-transfected with DNA sequences for both subunits αv and β3 of the vitronectin receptor. The subunits are extracted with octyl glycoside and then chromatographed through concanavalin A, heparin-Sepharose and S-300.
# Murine monoclonal antibodies which are specific for the β3 subunits of the vitronectin receptor, were prepared according to the method of Newman et al., Blood, 1985, 227, or by a similar process. The rabbit Fab 2 anti-mouse Fc conjugate to horseradish peroxidase (anti-mouse Fc HRP) was obtained from Pel Freeze (Catalog No. 715 305-1).
# The ability of substances to inhibit the binding of kistrin to the vitronectin receptor can be determined using an ELISA test. For this purpose, Nunc 96-well microtiter plates were coated with a solution of kistrin (0.002 mg/ml) according to the method of Dennis et al., as described in Proteins: Structure, Function and Genetics 15 (1993) 312. The plates were then washed twice with PBS/0.05% Tween-20 and blocked by incubating (60 min) with bovine serum albumin (BSA, 0.5%, RIA grade or better) in buffer solution (Tris-HCl (50 mM), NaCl (100 mM), MgCl2 (1 mM), CaCl2 (1 mM), MnCl2 (1 mM), pH 7). Solutions of known inhibitors and of the test substances were prepared in concentrations from 2×10^−12 to 2×10^−6 mol/l in assay buffer (BSA (0.5%, RIA grade or better); Tris-HCl (50 mM), NaCl (100 mM), MgCl2 (1 mM), CaCl2 (1 mM), MnCl2 (1 mM), pH 7). The blocked plates were emptied, and in each case 0.025 ml of this solution which contains a defined concentration (2×10^−12 to 2×10^−6 mol/l) either of a known inhibitor or of a test substance, were added to each well. 0.025 ml of a solution of the vitronectin receptor in assay buffer (0.03 mg/ml) was pipetted into each well of the plate and the plate was incubated at room temperature for 60-180 min on a shaker. In the meantime, a solution (6 ml/plate) of a murine monoclonal antibody specific for the […] of the vitronectin receptor was prepared in assay buffer (0.0015 mg/ml). A second rabbit antibody (0.001 ml of stock solution/6 ml of the murine monoclonal anti-β3 antibody solution) which is an anti-mouse Fc HRP antibody conjugate was added to this solution, and this mixture of murine anti-β3 antibody and rabbit anti-mouse Fc HRP antibody conjugate was incubated during the time of the receptor-inhibitor incubation. The test plates were washed four times with PBS solution which contains 0.05% Tween-20, and in each case 0.05 ml/well of the antibody mixture was pipefted into each well of the plate and incubated for 60-180 min. The plate was washed four times with PBS/0.05% Tween-20 and then developed with 0.05 ml/well of a PBS solution which contained 0.67 mg/ml of ophenylenediamine and 0.012% of H2O2. Alternatively to this, o-phenylenediamine can be employed in a buffer (pH 5) which contains Na3PO4 and citric acid. The color development was stopped using 1 N H2SO4 (0.05 ml/well). The absorption for each well was measured at 492-405 nm and the data are evaluated by standard methods.
# T1 sequence (P06756 31-889 limits assumed): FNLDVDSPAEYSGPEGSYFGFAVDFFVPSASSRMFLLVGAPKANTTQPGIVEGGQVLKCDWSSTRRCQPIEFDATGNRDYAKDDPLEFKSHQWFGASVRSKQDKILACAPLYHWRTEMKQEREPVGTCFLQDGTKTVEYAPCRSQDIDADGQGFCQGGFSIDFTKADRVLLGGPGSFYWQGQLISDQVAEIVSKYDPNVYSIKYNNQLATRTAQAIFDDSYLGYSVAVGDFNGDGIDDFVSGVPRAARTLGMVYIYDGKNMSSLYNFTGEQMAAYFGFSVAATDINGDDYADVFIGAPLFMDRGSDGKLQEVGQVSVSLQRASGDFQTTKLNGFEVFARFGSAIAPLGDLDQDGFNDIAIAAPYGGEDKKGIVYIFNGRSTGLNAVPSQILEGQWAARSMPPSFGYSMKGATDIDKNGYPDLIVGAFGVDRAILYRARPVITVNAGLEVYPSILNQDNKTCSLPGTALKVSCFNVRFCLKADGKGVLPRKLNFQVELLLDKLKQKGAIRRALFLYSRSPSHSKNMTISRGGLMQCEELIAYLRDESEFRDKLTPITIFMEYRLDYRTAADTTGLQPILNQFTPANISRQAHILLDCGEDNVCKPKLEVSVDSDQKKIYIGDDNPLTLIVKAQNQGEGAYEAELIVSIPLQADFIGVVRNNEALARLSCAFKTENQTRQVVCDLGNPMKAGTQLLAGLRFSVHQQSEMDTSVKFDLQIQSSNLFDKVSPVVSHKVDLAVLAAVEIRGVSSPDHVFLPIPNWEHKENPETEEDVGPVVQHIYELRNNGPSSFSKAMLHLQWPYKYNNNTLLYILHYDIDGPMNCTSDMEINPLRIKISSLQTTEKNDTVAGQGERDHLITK
# T1 sequence (P06756 891-1048 partner limits assumed): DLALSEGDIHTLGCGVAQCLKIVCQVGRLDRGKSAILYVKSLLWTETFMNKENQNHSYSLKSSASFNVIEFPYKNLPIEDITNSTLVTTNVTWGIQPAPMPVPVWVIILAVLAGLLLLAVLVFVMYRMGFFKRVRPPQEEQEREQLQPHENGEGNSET
# T1 sequence (P05106 27-788): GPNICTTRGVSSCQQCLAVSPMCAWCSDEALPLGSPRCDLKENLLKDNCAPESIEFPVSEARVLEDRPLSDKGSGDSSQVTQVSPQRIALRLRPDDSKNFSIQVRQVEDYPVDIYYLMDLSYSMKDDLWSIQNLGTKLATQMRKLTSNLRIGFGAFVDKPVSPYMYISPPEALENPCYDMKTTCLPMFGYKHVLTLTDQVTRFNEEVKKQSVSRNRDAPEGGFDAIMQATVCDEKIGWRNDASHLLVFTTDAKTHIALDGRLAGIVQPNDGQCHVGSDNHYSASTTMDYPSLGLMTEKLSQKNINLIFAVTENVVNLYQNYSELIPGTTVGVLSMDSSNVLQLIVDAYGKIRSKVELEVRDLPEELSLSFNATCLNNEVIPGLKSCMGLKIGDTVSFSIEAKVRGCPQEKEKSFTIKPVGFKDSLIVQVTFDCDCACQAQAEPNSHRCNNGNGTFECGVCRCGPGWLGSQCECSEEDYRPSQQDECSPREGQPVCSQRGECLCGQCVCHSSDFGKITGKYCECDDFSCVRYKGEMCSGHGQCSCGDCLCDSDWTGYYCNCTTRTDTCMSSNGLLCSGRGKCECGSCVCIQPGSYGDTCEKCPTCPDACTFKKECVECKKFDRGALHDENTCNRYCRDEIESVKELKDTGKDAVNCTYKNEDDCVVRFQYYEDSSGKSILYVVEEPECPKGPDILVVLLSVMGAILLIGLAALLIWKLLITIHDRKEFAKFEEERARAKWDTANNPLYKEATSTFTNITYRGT
row,SMILES,IC50 [nM]
1,"Cc1nc(NC[C@H](NS(=O)(=O)c2cccc3ccccc23)C(=O)O)c2ccn(CCCC(=O)NC3=NCCCN3)c2n1 [Example 3, (2S)-3-{2-Methyl-7-[3-(1,4,5,6-tetrahydro-pyrimidin-2-ylcarbamoyl)-propyl]-7H-pyrrolo[2,3-d]pyrimidin-4-ylamino}-2-(naphthalene-1-sulfonylamino)-propionic acid]",2.2

# Same assay, conditions: inhibition of the binding of kistrin to human vitronectin receptor (VnR), ELISA; read-out: K/VnR IC50
row,SMILES,IC50 [nM]
1,"Cc1nc(NC[C@H](NC(=O)OCc2ccccc2)C(=O)O)c2ccn(CCCC(=O)NC3=NCCCN3)c2n1 [Example 2, (2S)-2-Benzyloxycarbonylamino-3-{2-methyl-7-[3-(1,4,5,6-tetrahydro-pyrimidin-2-ylcarbamoyl)-propyl]-7H-pyrrolo[2,3-d]pyrimidin-4-ylamino}-propionic acid]",3.5
2,"O=C(CCCn1cnc2c(NC[C@H](NC(=O)OCc3ccccc3)C(=O)O)ncnc21)NC1=NCCCN1 [Example 1, (2S)-2-Benzyloxycarbonylamino-3-{9-[3-(1,4,5,6-tetrahydro-pyrimidin-2-ylcarbamoyl)-propyl]-9H-purin-6-ylamino}-propionic acid]",22
3,"Cc1nc(SC[C@H](NS(=O)(=O)c2ccc(Br)cc2)C(=O)O)c2ccn(CCCC(=O)NC3=NCCCN3)c2n1 [Example 6, (2R)-3-{2-Methyl-7-[3-(1,4,5,6-tetrahydro-pyrimidin-2-ylcarbamoyl)-propyl]-7H-pyrrolo[2,3-d]pyrimidin-4-ylsulfanyl}-2-(4-bromobenzenesulfonylamino)-propionic acid]",13.5
4,"Cc1nc(SC[C@H](NS(=O)(=O)c2cccc3ccccc23)C(=O)O)c2ccn(CCCC(=O)NC3=NCCCN3)c2n1 [Example 7, (2R)-3-{2-Methyl-7-[3-(1,4,5,6-tetrahydro-pyrimidin-2-ylcarbamoyl)-propyl]-7H-pyrrolo[2,3-d]pyrimidin-4-ylsulfanyl}-2-(naphthalene-1-sulfonylamino)-propionic acid]",5
5,"Cc1nc(NC[C@H](NS(=O)(=O)c2ccc(Br)cc2)C(=O)O)c2ccn(CCCC(=O)NC3=NCCCN3)c2n1 [Example 5, (2S)-3-{2-Methyl-7-[3-(1,4,5,6-tetrahydro-pyrimidin-2-ylcarbamoyl)-propyl]-7H-pyrrolo[2,3-d]pyrimidin-4-ylamino}-2-(4-bromobenzenesulfonylamino)-propionic acid]",2.6
6,"Cc1nc(SC[C@H](NS(=O)(=O)c2ccccc2)C(=O)O)c2ccn(CCCC(=O)NC3=NCCCN3)c2n1 [Example 8, (2R)-3-{2-Methyl-7-[3-(1,4,5,6-tetrahydro-pyrimidin-2-ylcarbamoyl)-propyl]-7H-pyrrolo[2,3-d]pyrimidin-4-ylsulfanyl}-2-(benzenesulfonylamino)-propionic acid]",10
7,"Cc1nc(NC[C@H](NS(=O)(=O)c2ccccc2)C(=O)O)c2ccn(CCCC(=O)NC3=NCCCN3)c2n1 [Example 4, (2S)-3-{2-Methyl-7-[3-(1,4,5,6-tetrahydro-pyrimidin-2-ylcarbamoyl)-propyl]-7H-pyrrolo[2,3-d]pyrimidin-4-ylamino}-2-(benzenesulfonylamino)-propionic acid]",3
